Consider two compounds from US11180484B2, “Pyrazole derivatives as plasma kallikrein inhibitors” (KALVISTA PHARMACEUTICALS LIMITED, priority 2016, dated 2021).

For orientation: solubility means the dissolved amount per volume that the medium holds. One may read the IC50 as the concentration needed to halve the response being measured. The low end stands for greater potency, the high end for weaker potency. In general, fraction unbound refers to free concentration divided by total concentration.

Structures are written as SMILES. ≈ marks a conversion by molar mass, not a printed value. Where two headings read alike, the source gives them in different places.

Data set [1] is described as follows: Intrinsic clearance in rat liver microsomes. Format: in vitro ADME. As to conditions: rat liver microsomes 0.5 mg/mL, 5 μM test compound, 37° C.; read-out: rat liver microsome (Clint μL/min/mg protein). How it is done: (§1) Rat or human liver microsomes (0.5 mg/mL; Corning) were incubated with 5 μM test compound at 37° C. on a shaking platform (150 rpm). Samples were taken at 0, 6, 12, 18, 24 and 60 min and test compound concentrations were determined by LCMS against a calibration curve.
Background: Microsomes from liver hold many membrane-bound enzymes, among them those of drug oxidation.

Data set [2] can be described thus: Solubility in water and 0.1N HCl (aq). The conditions noted are these: thermodynamic from solid, incubated at 1 mg/mL, 37° C. Type of data set: physicochemical. On the procedure:
Solubility was determined in water and 0.1N HCl (aq). Test compounds were incubated at 1 mg/mL for 24 hrs at 37° C. on a shaking platform (500 rpm). Samples were taken at 1, 4 and 24 hrs and centrifuged at 15,000 g for 10 min. Test compound concentration in the supernatant was determined by LCMS against a standard curve.

The next data set concerns the target trypsin. The experiment in a line: Determination of enzyme selectivity: trypsin. Type of data set: biochemical, human. The conditions noted are these: substrate at Km concentration.
Data set [3] can be described thus: Plasma protein binding (PPB), rapid equilibrium dialysis, human plasma. Format: in vitro ADME. The conditions noted are these: 5 μM test compound, dialysis 5 hrs at 37° C.
A short description of data set [4]: Intrinsic clearance in human liver microsomes. Format: in vitro ADME. As to conditions: human liver microsomes 0.5 mg/mL, 5 μM test compound, 37° C.; read-out: Human liver microsome (Clint μL/min/mg protein). How it is done: as §1
Data set [5] in a line: Predicted plasma clearance (Clp), well-stirred model, human. Type of data set: in vitro ADME. As to conditions: percentage of hepatic blood flow.
Setting [6] is: simulated gastric fluid, 0.1N HCl (aq), read-out: Solubility 0.1N HCl (aq).
Setting [7] is: water, read-out: Solubility Water.

Experimental for trypsin: Human serine protease enzymes plasmin, thrombin and trypsin were assayed for enzymatic activity using an appropriate fluorogenic substrate. Protease activity was measured by monitoring the accumulation of liberated fluorescence from the substrate over 5 minutes. The linear rate of fluorescence increase per minute was expressed as percentage (%) activity. The Km for the cleavage of each substrate was determined by standard transformation of the Michaelis-Menten equation.

On to `COCc1nn(Cc2ccc(Cn3ccccc3=O)cc2)cc1C(=O)NCc1c(-n2cnnn2)ccc(OC)c1F` [Example 39, N-{[2-Fluoro-3-methoxy-6-(1,2,3,4-tetrazol-1-yl)phenyl]methyl}-3-(methoxymethyl)-1-({4-[(2-oxopyridin-1-yl)methyl]phenyl}methyl)pyrazole-4-carboxamide], for which the figures for the microsomal CLint at 5 μM in data set [1] and in data set [4] were 19 µL/min/mg and 29 µL/min/mg, respectively. Further, the solubility in data set [2] (setting [6]) is 19 µg/mL (≈ 34 µM); in data set [2] (setting [7]), 7 µg/mL (≈ 12.5 µM). For the same compound, at trypsin, the half-inhibitory concentration (IC50) is above 40 µM. Besides, the fraction unbound at 5 h, 5 μM in data set [3] was 0.22. The “Predicted in vivo human Clp (% LBF)” value in data set [5] was 21 % LBF.
For the compound `COCc1nn(Cc2cnc(N3CCCC3)nc2)cc1C(=O)NCc1c(-n2cnnn2)ccc(OC)c1F` [Example 79, N-{[2-Fluoro-3-methoxy-6-(1,2,3,4-tetrazol-1-yl)phenyl]methyl}-3-(methoxymethyl)-1-{[2-(pyrrolidin-1-yl)pyrimidin-5-yl]methyl}pyrazole-4-carboxamide], the microsomal CLint at 5 μM in data set [1] is 23 µL/min/mg; in data set [4], 4 µL/min/mg. The figures for the solubility in data set [2] (setting [6]) and in data set [2] (setting [7]) were 924 µg/mL (≈ 1770 µM) and 93 µg/mL (≈ 178 µM), respectively. On trypsin, this compound showed a concentration for half-maximal inhibition (IC50) above 40 µM. The free fraction (fraction unbound) at 5 h, 5 μM in data set [3] was 0.09. Further, in data set [5], the “Predicted in vivo human Clp (% LBF)” value is 1 % LBF.
